Test results reported in BigSolDB 2.1.

Settings: in water

Row | solubility (mole fraction) (278.15 K) | solubility (mole fraction) (283.15 K) | solubility (mole fraction) (288.15 K) | solubility (mole fraction) (293.15 K) | solubility (mole fraction) (298.15 K) | solubility (mole fraction) (303.15 K) | solubility (mole fraction) (308.15 K) | solubility (mole fraction) (313.15 K) | solubility (mole fraction) (318.15 K) | solubility (mole fraction) (323.15 K) | solubility (mole fraction) (328.15 K) | solubility (mole fraction) (333.15 K) | SMILES
1 | 0.134 | 0.163 | 0.195 | 0.232 | 0.276 | 0.315 | 0.371 | 0.4 | 0.45 | 0.486 | 0.527 | 0.568 | CCC(N)=O
2 | 0.0163 | 0.021 | 0.026 | 0.0331 | 0.0442 | 0.0575 | 0.0724 | 0.0895 | 0.109 | 0.131 | 0.152 | 0.175 | CCCC(N)=O
